Experimental data from PubChem BioAssay AID248 (DTP/NCI, 2004).
Several values for one entry are separate records, joined by “and”; a condition that tells them apart may be missing. Equal entries are not always repeated. Toxic doses and inconclusive results are not listed. No stated cut-off is given here; in the data, active means T/C of 150% or more; inactive means T/C below 125%.

System: L1210 leukemia ip in BDF1 mice, survival T/C
Assay: NCI In Vivo Anticancer Drug Screen. Data for tumor model L1210 Leukemia (intraperitoneal) in B6D2F1 (BDF1) mice
Conditions: endpoint: mean survival time, higher = longer survival
Summary of the method: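 Tumor was transplanted into mice, which were then dosed with test compound or vehicle alone. Survival was recorded for each group, and the treated figure was expressed relative to the control figure.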

[1] = dose: 100.0 mg/kg/injection, schedule: Q04DX003 (ip), vehicle: saline with Tween-80
[2] = dose: 200.0 mg/kg/injection, schedule: Q04DX003 (ip), vehicle: saline with Tween-80
[3] = dose: 400.0 mg/kg/injection, schedule: Q04DX003 (ip), vehicle: saline with Tween-80
[4] = dose: 100.0 mg/kg/injection, schedule: Q01DX001 (ip), vehicle: saline
[5] = dose: 200.0 mg/kg/injection, schedule: Q01DX001 (ip), vehicle: saline
[6] = dose: 400.0 mg/kg/injection, schedule: Q01DX001 (ip), vehicle: saline
[7] = dose: 200.0 mg/kg/injection, schedule: Q01DX009 (ip), vehicle: saline
[8] = dose: 100.0 mg/kg/injection, schedule: Q04DX002 (ip), vehicle: saline with Tween-80
[9] = dose: 100.0 mg/kg/injection, schedule: Q01DX009 (ip), vehicle: saline with Tween-80
[10] = dose: 200.0 mg/kg/injection, schedule: Q01DX009 (ip), vehicle: saline with Tween-80
[11] = dose: 400.0 mg/kg/injection, schedule: Q01DX009 (ip), vehicle: saline with Tween-80

Measured: T/C

CCOC(=O)C(=N\Nc1ccc(C)cc1C)/C(C)=N\NC(N)=S
inactive: dose: 75.0 mg/kg/injection, schedule: Q01DX001 (ip), vehicle: saline 105 % of control

O=C(O)c1ccc(C(=O)O)o1
inactive: dose: 100.0 mg/kg/injection, schedule: Q04DX002 (ip), vehicle: Klucel (hydroxypropylcellulose) (HPC) 95 % of control | dose: 200.0 mg/kg/injection, schedule: Q04DX002 (ip), vehicle: Klucel (hydroxypropylcellulose) (HPC) 91 % of control | dose: 400.0 mg/kg/injection, schedule: Q04DX002 (ip), vehicle: Klucel (hydroxypropylcellulose) (HPC) 91 % of control

CC(=O)N(C)c1ccc(NC2=NCCO2)cc1
inactive: [1] 98 % of control | [2] 101 % of control | [3] 98 % of control

CC(C)(CCN(CC(=O)O)CC(=O)O)[N+](=O)[O-]
inactive: [4] 112 % of control | [5] 96 % of control | [6] 102 % of control

Cc1ccc(S(=O)(=O)N/N=C2/C3CC4C(C3)C24)cc1
inactive: [4] 90 % of control | [5] 88 % of control | [7] 92 % of control | [6] 103 % of control

O=C(OCCCOC(=O)c1cccc([N+](=O)[O-])c1)c1cccc([N+](=O)[O-])c1
inactive: dose: 100.0 mg/kg/injection, schedule: Q01DX001 (ip), vehicle: other 101 % of control | dose: 200.0 mg/kg/injection, schedule: Q01DX001 (ip), vehicle: other 98 % of control | dose: 400.0 mg/kg/injection, schedule: Q01DX001 (ip), vehicle: other 102 % of control

O=C(NCc1cccnc1)c1ccccc1N=Cc1cc(Cl)cc(Cl)c1O
inactive: dose: 100.0 mg/kg/injection, schedule: Q01DX009 (ip), vehicle: Klucel (hydroxypropylcellulose) (HPC) 98 % of control | dose: 200.0 mg/kg/injection, schedule: Q01DX009 (ip), vehicle: Klucel (hydroxypropylcellulose) (HPC) 96 % of control | dose: 400.0 mg/kg/injection, schedule: Q01DX009 (ip), vehicle: Klucel (hydroxypropylcellulose) (HPC) 89 % of control

O=C1Nc2ccccc2C1=Nc1cccc2ncccc12
inactive: dose: 100.0 mg/kg/injection, schedule: Q01DX001 (ip), vehicle: acetone 97 % of control | dose: 200.0 mg/kg/injection, schedule: Q01DX001 (ip), vehicle: acetone 93 % of control | dose: 400.0 mg/kg/injection, schedule: Q01DX001 (ip), vehicle: acetone 100 % of control

CCN1C(=O)CC(O)C1=O (centres undefined)
inactive: dose: 100.0 mg/kg/injection, schedule: Q01DX009 (ip), vehicle: saline 101 % of control | [7] 100 % of control | dose: 400.0 mg/kg/injection, schedule: Q01DX009 (ip), vehicle: saline 97 % of control

NC(N)=N/N=C(/c1ccccc1)c1ccc(O)cc1O
inactive: dose: 15.0 mg/kg/injection, schedule: Q01DX Z (ip), vehicle: saline 101 % of control | dose: 30.0 mg/kg/injection, schedule: Q01DX Z (ip), vehicle: saline 92 % of control | dose: 60.0 mg/kg/injection, schedule: Q01DX Z (ip), vehicle: saline 94 % of control | dose: 120.0 mg/kg/injection, schedule: Q01DX Z (ip), vehicle: saline 92 % of control | dose: 120.0 mg/kg/injection, schedule: Q01DX Z (oral), vehicle: saline 101 % of control | dose: 240.0 mg/kg/injection, schedule: Q01DX Z (ip), vehicle: saline 108 % of control | dose: 240.0 mg/kg/injection, schedule: Q01DX Z (oral), vehicle: saline 102 % of control | dose: 480.0 mg/kg/injection, schedule: Q01DX Z (oral), vehicle: saline 101 % of control | dose: 960.0 mg/kg/injection, schedule: Q01DX Z (oral), vehicle: saline 98 % of control

NC(N)=NCCCC(N=Cc1ccccc1O)C(=O)O (centres undefined)
inactive: [4] 96 % of control | [5] 102 % of control | [6] 95 % of control

Nc1ccccc1Sc1ccc2c3c(cccc13)C(=O)N(c1ccccc1)C2=O
inactive: [8] 87 % of control | dose: 400.0 mg/kg/injection, schedule: Q04DX002 (ip), vehicle: saline with Tween-80 94 % of control

O=c1s[se]c2ccccc12
inactive: dose: 1.56 mg/kg/injection, schedule: Q01DX009 (ip), vehicle: Klucel (hydroxypropylcellulose) (HPC) 100 % of control | dose: 3.12 mg/kg/injection, schedule: Q01DX009 (ip), vehicle: Klucel (hydroxypropylcellulose) (HPC) 100 % of control | dose: 6.25 mg/kg/injection, schedule: Q01DX009 (ip), vehicle: Klucel (hydroxypropylcellulose) (HPC) 107 % of control | dose: 12.5 mg/kg/injection, schedule: Q01DX009 (ip), vehicle: Klucel (hydroxypropylcellulose) (HPC) 111 % of control | dose: 25.0 mg/kg/injection, schedule: Q01DX009 (ip), vehicle: Klucel (hydroxypropylcellulose) (HPC) 102 % of control | dose: 50.0 mg/kg/injection, schedule: Q01DX009 (ip), vehicle: Klucel (hydroxypropylcellulose) (HPC) 91 % of control

CC(=O)Oc1ccc(C2OC(=O)c3ccccc3N2C(C)=O)cc1 (centres undefined)
inactive: [9] 101 % of control | [10] 101 % of control | [11] 92 % of control

Nc1ccccc1SC1CC(=O)N(c2ccccc2Cl)C1=O (centres undefined)
inactive: [9] 98 % of control | [10] 95 % of control | [11] 97 % of control

O=C1N(CCO)CNC1(c1ccccc1)c1ccccc1
inactive: dose: 100.0 mg/kg/injection, schedule: Q01DX001 (ip), vehicle: saline with Tween-80 102 % of control | dose: 200.0 mg/kg/injection, schedule: Q01DX001 (ip), vehicle: saline with Tween-80 98 % of control

CC(=O)OC1C=CC(=O)OC1C1OC1C (centres undefined)
inactive: dose: 4.0 mg/kg/injection, schedule: Q01DX Z (ip), vehicle: saline 100 % of control | dose: 6.0 mg/kg/injection, schedule: Q01DX Z (ip), vehicle: saline 111 % of control | dose: 9.0 mg/kg/injection, schedule: Q01DX Z (ip), vehicle: saline 110 % of control | dose: 13.0 mg/kg/injection, schedule: Q01DX Z (ip), vehicle: saline 100 % of control and 108 % of control | dose: 19.0 mg/kg/injection, schedule: Q01DX Z (ip), vehicle: saline 103 % of control | dose: 29.0 mg/kg/injection, schedule: Q01DX Z (ip), vehicle: saline 103 % of control

CCC1(CC)C2=CCC3C(CCC4(C)C(C(C)CCCC(C)C)CCC34)C2(C)CCC1OC(C)=O (centres undefined)
inactive: dose: 50.0 mg/kg/injection, schedule: Q01DX009 (sc), vehicle: steriod suspending solution 90 % of control | dose: 100.0 mg/kg/injection, schedule: Q01DX009 (sc), vehicle: steriod suspending solution 87 % of control | dose: 100.0 mg/kg/injection, schedule: Q04DX003 (sc), vehicle: steriod suspending solution 107 % of control | dose: 200.0 mg/kg/injection, schedule: Q01DX009 (sc), vehicle: steriod suspending solution 100 % of control | dose: 200.0 mg/kg/injection, schedule: Q04DX003 (sc), vehicle: steriod suspending solution 86 % of control | dose: 400.0 mg/kg/injection, schedule: Q04DX003 (sc), vehicle: steriod suspending solution 96 % of control

CCCCCCCCCCOP(OCCCCCCCCCC)Oc1ccccc1
inactive: dose: 100.0 mg/kg/injection, schedule: Q04DX003 (ip), vehicle: saline 102 % of control | dose: 200.0 mg/kg/injection, schedule: Q04DX003 (ip), vehicle: saline 93 % of control | dose: 400.0 mg/kg/injection, schedule: Q04DX003 (ip), vehicle: saline 102 % of control

COc1cc(C)c(NC(=O)Oc2ccccc2)c(C)c1
inactive: [1] 89 % of control | [2] 91 % of control | [3] 91 % of control

CCOC(=O)c1ccc(NC(=S)Nc2ccccc2S)cc1
inactive: dose: 25.0 mg/kg/injection, schedule: Q04DX002 (ip), vehicle: saline with Tween-80 101 % of control | dose: 50.0 mg/kg/injection, schedule: Q04DX002 (ip), vehicle: saline with Tween-80 101 % of control | [8] 93 % of control and 87 % of control

CC[P+](c1ccccc1)(c1ccccc1)c1ccccc1
inactive: dose: 0.62 mg/kg/injection, schedule: Q01DX009 (ip), vehicle: saline 100 % of control | dose: 0.62 mg/kg/injection, schedule: Q04DX003 (ip), vehicle: saline 100 % of control | dose: 1.25 mg/kg/injection, schedule: Q01DX009 (ip), vehicle: saline 100 % of control | dose: 1.25 mg/kg/injection, schedule: Q04DX003 (ip), vehicle: saline 97 % of control | dose: 2.5 mg/kg/injection, schedule: Q01DX009 (ip), vehicle: saline 100 % of control | dose: 2.5 mg/kg/injection, schedule: Q04DX003 (ip), vehicle: saline 97 % of control

CC1(C)C2=CCCC(O)C2(C)CCC1O (centres undefined)
inactive: dose: 50.0 mg/kg/injection, schedule: Q01DX009 (ip), vehicle: saline with Tween-80 96 % of control | [9] 96 % of control | [10] 92 % of control
